Patent US11780826B2 (Amgen Inc., priority 2017, dated 2023)

tested on: Bovine cardiac myofibrils; test: In vitro model of dose-dependent myofibril ATPase modulation (AC1.4, pyruvate kinase/lactate dehydrogenase-coupled ATPase assay at pCa25); assay type: biochemical; details: concentration at which ATPase activity was 1.4-fold higher than the bottom of the dose curve, mean of a minimum of two independent tests
Outline: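 Absorbance at 340 nm tracked ATP hydrolysis through pyruvate kinase/lactate dehydrogenase coupling (0.5 mM NADH, 1.5 mM PEP). Myofibrils from detergent-homogenized bovine heart, 1 mM ATP, pH 6.80, EGTA/CaCl2 buffering. Dose-response curves fitted with a four-parameter Hill equation.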

Structure (SMILES) | AC1.4 [µM]
Nc1ccccc1C(=O)N1[C@@H](C(=O)N[C@@H](c2ccc(C(F)(F)F)cc2F)C2CC2)C[C@H]2C[C@H]21 [Example 755, (1R,3R,5R)-2-(2-aminobenzoyl)-N-((R)-cyclopropyl(2-fluoro-4-(trifluoromethyl)phenyl)methyl)-2-azabicyclo[3.1.0]hexane-3-carboxamide] | 7.5435
CS(=O)(=O)c1cccc(C(=O)N2CC[C@@H](F)[C@@H]2C(=O)N[C@@H](c2ccc(C(F)(F)F)cc2)C2CC2)c1 [Example 756, (3R)-N-((R)-cyclopropyl(4-(trifluoromethyl)phenyl)methyl)-3-fluoro-1-(3-(methylsulfonyl)benzoyl)-D-prolinamide] | 7.5875
CC(O)C(NC(=O)[C@H]1C[C@H]2C[C@H]2N1C(=O)c1cccc(S(C)(=O)=O)c1)c1cc(F)c(Cl)cc1F (stereo partly drawn) [Example 757, (1R,3R,5R)-N-(1-(4-chloro-2,5-difluorophenyl)-2-hydroxypropyl)-2-(3-(methylsulfonyl)benzoyl)-2-azabicyclo[3.1.0]hexane-3-carboxamide] | 7.6005
N#CC1CN(S(=O)(=O)N2CCC[C@H](C(=O)N3CCC[C@@H]3C(=O)NCc3ccccc3)C2)C1 [Example 758, (R)—N-benzyl-1-((S)-1-((3-cyanoazetidin-1-yl)sulfonyl)piperidine-3-carbonyl)pyrrolidine-2-carboxamide] | 7.61
N#CC1CN(S(=O)(=O)c2cccc(C(=O)N3CCC[C@@H]3C(=O)NC3CC(C(F)(F)F)C3)c2)C1 (stereo partly drawn) [Example 759, 1-((3-((3-cyano-1-azetidinyl)sulfonyl)phenyl)carbonyl)-N-(cis-3-(trifluoromethyl)cyclobutyl)-D-prolinamide,1-((3-((3-cyano-1-azetidinyl)sulfonyl)phenyl)carbonyl)-N-(trans-3-(trifluoromethyl)cyclobutyl)-D-prolinamide] | 7.6347
O=C(NCc1ccc(C(F)(F)F)cc1)[C@H]1CCCN1C(=O)[C@H]1CCCN(S(=O)(=O)N2CC(F)(C(F)(F)F)C2)C1 [Example 760, 1-(((3S)-1-((3-fluoro-3-(trifluoromethyl)-1-azetidinyl)sulfonyl)-3-piperidinyl)carbonyl)-N-(4-(trifluoromethyl)benzyl)-D-prolinamide] | 7.661
CS(=O)(=O)c1cc(C(=O)N2CCC[C@@H]2C(=O)NC(c2ccc(C(F)(F)F)cc2F)C2CC2)ccn1 (stereo partly drawn) [Example 761, (2R)-N-(cyclopropyl(2-fluoro-4-(trifluoromethyl)phenyl)methyl)-1-(2-(methylsulfonyl)isonicotinoyl)pyrrolidine-2-carboxamide] | 7.696
CC(NC(=O)[C@H]1CCCN1C(=O)[C@H]1CCCN(S(=O)(=O)N2CC(C#N)C2)C1)c1cccc(F)c1F (stereo partly drawn) [Example 763, (2R)-1-((S)-1-((3-cyanoazetidin-1-yl)sulfonyl)piperidine-3-carbonyl)-N-(1-(2,3-difluorophenyl)ethyl)pyrrolidine-2-carboxamide] | 7.879
COC(=O)CNS(=O)(=O)c1cccc(C(=O)N2CCC[C@@H]2C(=O)NCc2ccc(C(F)(F)F)cc2)c1 [Example 764, methyl N-((3-(((2R)-2-((4-(trifluoromethyl)benzyl)carbamoyl)-1-pyrrolidinyl)carbonyl)phenyl)sulfonyl)glycinate] | 7.912
Cc1ccc(C)c(CNC(=O)[C@H]2CCCN2C(=O)[C@H]2CCCN(S(=O)(=O)N3CC(C#N)C3)C2)c1 [Example 765, 1-(((3S)-1-((3-cyano-1-azetidinyl)sulfonyl)-3-piperidinyl)carbonyl)-N-(2,5-dimethylbenzyl)-D-prolinamide] | 7.9325
O=C(NCc1ccc(C(F)(F)F)cc1)[C@H]1CCCN1C(=O)[C@H]1CCCN(S(=O)(=O)C2CCOC2)C1 (stereo partly drawn) [Example 766, (2R)-1-((3S)-1-((tetrahydrofuran-3-yl)sulfonyl)piperidine-3-carbonyl)-N-(4-(trifluoromethyl)benzyl)pyrrolidine-2-carboxamide] | 7.933
CS(=O)(=O)c1cncc(C(=O)N2CC(F)(F)C2C(=O)N[C@@H](c2cc(F)c(C(F)(F)F)cc2F)C2CC2)c1 (stereo partly drawn) [Example 767, N-((R)-cyclopropyl(2,5-difluoro-4-(trifluoromethyl)phenyl)methyl)-3,3-difluoro-1-(5-(methylsulfonyl)nicotinoyl)azetidine-2-carboxamide] | 8.015
N#CC1CN(S(=O)(=O)N2CCC[C@H](C(=O)N3CCC[C@@H]3C(=O)N[C@H](c3ccc(C(F)(F)F)cc3)C(F)(F)F)C2)C1 [Example 768, 1-(((3S)-1-((3-cyano-1-azetidinyl)sulfonyl)-3-piperidinyl)carbonyl)-N-((1R)-2,2,2-trifluoro-1-(4-(trifluoromethyl)phenyl)ethyl)-D-prolinamide] | 8.033
CC1CCN1S(=O)(=O)N1CCC[C@H](C(=O)N2CCC[C@@H]2C(=O)NCc2ccc(C(F)(F)F)cc2)C1 (stereo partly drawn) [Example 769, (2R)-1-((3S)-1-((2-methylazetidin-1-yl)sulfonyl)piperidine-3-carbonyl)-N-(4-(trifluoromethyl)benzyl)pyrrolidine-2-carboxamide] | 8.078
COc1ccc(Cl)cc1CNC(=O)[C@H]1CCCN1C(=O)[C@H]1CCCN(S(=O)(=O)N2CC(C#N)C2)C1 [Example 770, N-(5-chloro-2-methoxybenzyl)-1-(((3S)-1-((3-cyano-1-azetidinyl)sulfonyl)-3-piperidinyl)carbonyl)-D-prolinamide] | 8.1255
O=C(NCc1ccc(C(F)(F)F)cc1)[C@H]1CCCN1C(=O)[C@H]1CCCN(S(=O)(=O)N2CC(c3cccc(C(F)(F)F)c3)C2)C1 [Example 771, N-(4-(trifluoromethyl)benzyl)-1-(((3S)-1-((3-(3-(trifluoromethyl)phenyl)-1-azetidinyl)sulfonyl)-3-piperidinyl)carbonyl)-D-prolinamide] | 8.1415
CC[C@@H](NC(=O)[C@H]1CCCN1C(=O)c1cccc(S(C)(=O)=O)c1)c1ccc(Cl)c(F)c1 [Example 772, N-((1R)-1-(4-chloro-3-fluorophenyl)propyl)-1-(3-(methylsulfonyl)benzoyl)-D-prolinamide] | 8.175
O=C(NCc1ccc(C(F)(F)F)cc1)[C@H]1CCCN1C(=O)[C@H]1CCCN(S(=O)(=O)N2CCC(F)(F)C2)C1 [Example 773, 1-(((3S)-1-((3,3-difluoro-1-pyrrolidinyl)sulfonyl)-3-piperidinyl)carbonyl)-N-(4-(trifluoromethyl)benzyl)-D-prolinamide] | 8.21
Cc1nnc(CNS(=O)(=O)N2CCC[C@H](C(=O)N3CCC[C@@H]3C(=O)NCc3ccc(C(F)(F)F)cc3)C2)o1 [Example 774, 1-(((3S)-1-(((5-methyl-1,3,4-oxadiazol-2-yl)methyl)sulfamoyl)-3-piperidinyl)carbonyl)-N-(4-(trifluoromethyl)benzyl)-D-prolinamide] | 8.3045
COC(=O)[C@H]1C[C@H](S(=O)(=O)N2CCC[C@H](C(=O)N3CCC[C@@H]3C(=O)NCc3ccc(C(F)(F)F)cc3)C2)C1 [Example 775, methyltrans-3-(((3S)-3-(((2R)-2-((4-(trifluoromethyl)benzyl)carbamoyl)-1-pyrrolidinyl)carbonyl)-1-piperidinyl)sulfonyl)cyclobutanecarboxylate] | 8.31
COc1ccc([C@H](NC(=O)[C@H]2CCCN2C(=O)[C@H]2CCCN(S(=O)(=O)N3CC(C#N)C3)C2)C(F)(F)F)cc1F [Example 776, 1-(((3S)-1-((3-cyano-1-azetidinyl)sulfonyl)-3-piperidinyl)carbonyl)-N-((1S)-2,2,2-trifluoro-1-(3-fluoro-4-methoxyphenyl)ethyl)-D-prolinamide] | 8.3695
NS(=O)(=O)c1cc(C(=O)N2CCC[C@@H]2C(=O)N[C@@H](c2ccc(C(F)(F)F)cc2F)C2CC2)c(Cl)cc1F [Example 777, 1-(2-chloro-4-fluoro-5-sulfamoylbenzoyl)-N-((R)-cyclopropyl(2-fluoro-4-(trifluoromethyl)phenyl)methyl)-D-prolinamide] | 8.3805
CS(=O)(=O)c1cc(C(=O)N2[C@@H](C(=O)N[C@@H](c3cc(F)c(Cl)cc3F)C3CC3)C[C@@H]3C[C@@H]32)ccn1 [Example 779, (1S,3R,5S)-N-((R)-(4-chloro-2,5-difluorophenyl)(cyclopropyl)methyl)-2-((2-(methylsulfonyl)-4-pyridinyl)carbonyl)-2-azabicyclo[3.1.0]hexane-3-carboxamide] | 8.423
O=C(NCc1ccc(C(F)(F)F)cc1)[C@H]1CCCN1C(=O)[C@H]1CCCN(S(=O)(=O)C2CCC2)C1 [Example 780, (R)-1-((S)-1-(cyclobutylsulfonyl)piperidine-3-carbonyl)-N-(4-(trifluoromethyl)benzyl)pyrrolidine-2-carboxamide] | 8.4235
N#CC1CN(S(=O)(=O)N2CCC[C@H](C(=O)N3CCC[C@@H]3C(=O)NCc3cccc(OC(F)F)c3)C2)C1 [Example 781, 1-(((3S)-1-((3-cyano-1-azetidinyl)sulfonyl)-3-piperidinyl)carbonyl)-N-(3-(difluoromethoxy)benzyl)-D-prolinamide] | 8.59
CC(=O)NC1CN(S(=O)(=O)N2CCC[C@H](C(=O)N3CCC[C@@H]3C(=O)NCc3ccc(C(F)(F)F)cc3)C2)C1 [Example 782, 1-(((3S)-1-((3-(acetylamino)-1-azetidinyl)sulfonyl)-3-piperidinyl)carbonyl)-N-(4-(trifluoromethyl)benzyl)-D-prolinamide] | 8.6395
COc1ccc2c(c1)[C@H](NC(=O)[C@H]1CCCN1C(=O)[C@H]1CCCN(S(=O)(=O)N3CC(C#N)C3)C1)CCO2 [Example 783, 1-(((3S)-1-((3-cyano-1-azetidinyl)sulfonyl)-3-piperidinyl)carbonyl)-N-((4R)-6-methoxy-3,4-dihydro-2H-chromen-4-yl)-D-prolinamide] | 8.7825
